Reference: patent publication US20240123079A1 (Seagen Inc., priority 2021, published 2024)
pEC50: −log10 of the molar value.

These compounds were tested on THP1-Dual™ reporter cells (assay: THP1-Dual cell reporter assay (IRF-Lucia luciferase reporter)). Conditions: ADCs: drug linker conjugated to a targeted mAb, 48 h.
Format: cell-based, human
Protocol: THP1-Dual™ Cell Reporter Assay
Potency of compounds and ADCs was evaluated using the THP1-Dual™ cells (InvivoGen PN: thpd-nfis [also referred to as THP1 dual reporter cells]), which contain an IRF-Lucia luciferase reporter. Cells were cultured in RPMI-1640 (Gibco) with 10% heat-inactivated fetal bovine serum, Pen-Strep (100 U/mL-100 μg/mL, Gibco), HEPES (10 mM, Gibco)), sodium pyruvate (1 mM, Gibco), MEM non-essential amino acids (1×, Gibco), GlutaMAX (1×, Gibco), and beta-mercaptoethanol (55 μM, Gibco). Cells were plated in a 96-well flat bottom tissue culture-treated clear polystyrene plate (Corning Costar #3596) at ˜100,000 cells per well in 200 μL with the indicated concentration of the compound or ADC. The supernatant was harvested at 24 hours (compounds) or 48 hours (ADC) post plating for the reporter assay, or as indicated. To measure Lucia reporter signal, 10 μL of the supernatant was combined with 40 μL of QUANTI-Luc™ Luminescence assay reagent (Invivogen PN: rep-qlc1) in a 96-well clear flat bottom tissue culture-treated black polystyrene plate (Corning Costar #3603) and read on a Perkin Elmer Envision plate reader.
STING agonist compounds were assessed for their ability to activate THP1-Dual™ reporter cells, a human monocytic cell line in which type I interferon (IRF) signaling can be monitored via a secreted luciferase reporter protein (Lucia). THP1-Dual™ cells were treated with increasing concentrations of the agonists for 24h, then supernatants were harvested and the Lucia reporter signal was quantified using QUANTI-Luc™ Luminescence assay reagent.

SMILES	EC50 [µg/mL]
CCn1nc(C)cc1C(=O)Nc1nc2cc(C(N)=O)cc(OC)c2n1C/C=C/Cn1c(NC(=O)c2cc(C)nn2CC)nc2cc(C(N)=O)cc(OCCCN(C)C(=O)[C@H](CC(=O)O)NC(=O)CCN3C(=O)C=CC3=O)c21 [Compound 17, (S,E)-4-((3-((5-carbamoyl-1-(4-(5-carbamoyl-2-(1-ethyl-3-methyl-1H-pyrazole-5-carboxamido)-7-methoxy-1H-benzo[d]imidazol-1-yl)but-2-en-1-yl)-2-(1-ethyl-3-methyl1H-pyrazole-5-carboxamido)-1H-benzo[d]imidazol-7-yl)oxy)propyl)(methyl)amino)-3-(3-(2,5-dioxo-2,5-dihydro-1H-pyrrol-1-yl)propanamido)-4-oxobutanoic acid]	0.0022
CCn1nc(C)cc1C(=O)Nc1nc2cc(C(N)=O)cc(OC)c2n1C/C=C/Cn1c(NC(=O)c2cc(C)nn2CC)nc2cc(C(N)=O)cc(OCCCN(C)C(=O)[C@H](CO)NC(=O)CCN3C(=O)C=CC3=O)c21 [Compound 24, (S,E)-1-(4-(5-carbamoyl-2-(1-ethyl-3-methyl-1H-pyrazole-5-carboxamido)-7-methoxy-1H-benzo[d]imidazol-1-yl)but-2-en-1-yl)-7-(3-(2-(3-(2,5-dioxo-2,5-dihydro-1H-pyrrol-1-yl)propanamido)-3-hydroxy-N-methylpropanamido)propoxy)-2-(1-ethyl-3-methyl-1H-pyrazole-5-carboxamido)-1H-benzo[d]imidazole-5-carboxamide]	0.0021
CCn1nc(C)cc1C(=O)Nc1nc2cc(S(N)(=O)=O)ccc2n1C/C=C/Cn1c(NC(=O)c2cc(C)nn2CC)nc2cc(C(N)=O)cc(OCCCN(C)C(=O)CCN3C(=O)C=CC3=O)c21 [Compound 25, (E)-7-(3-(3-(2,5-dioxo-2,5-dihydro-1H-pyrrol-1-yl)-N-methylpropanamido)propoxy)-2-(1-ethyl-3-methyl-1H-pyrazole-5-carboxamido)-1-(4-(2-(1-ethyl-3-methyl-1H-pyrazole-5-carboxamido)-5-sulfamoyl-1H-benzo[d]imidazol-1-yl)but-2-en-1-yl)-1H-benzo[d]imidazole-5-carboxamide]	0.307
CCn1nc(C)cc1C(=O)Nc1nc2cc(C(N)=O)cc(OC)c2n1C/C=C/Cn1c(NC(=O)c2cc(C)nn2CC)nc2cc(C(N)=O)cc(OCCC3CN(C(=O)CCN4C(=O)C=CC4=O)C3)c21 [Compound 26, (E)-1-(4-(5-carbamoyl-2-(1-ethyl-3-methyl-1H-pyrazole-5-carboxamido)-7-methoxy-1H-benzo[d]imidazol-1-yl)but-2-en-1-yl)-7-(2-(1-(3-(2,5-dioxo-2,5-dihydro-1H-pyrrol-1-yl)propanoyl)azetidin-3-yl)ethoxy)-2-(1-ethyl-3-methyl-1H-pyrazole-5-carboxamido)-1H-benzo[d]imidazole-5-carboxamide]	0.0144
CCn1nc(C)cc1C(=O)Nc1nc2cc(C(N)=O)cc(OC)c2n1C/C=C/Cn1c(NC(=O)c2cc(C)nn2CC)nc2cc(C(N)=O)cc(OCCCOC3CN(C(=O)CCN4C(=O)C=CC4=O)C3)c21 [Compound 27, (E)-1-(4-(5-carbamoyl-2-(1-ethyl-3-methyl-1H-pyrazole-5-carboxamido)-7-methoxy-1H-benzo[d]imidazol-1-yl)but-2-en-1-yl)-7-(3-((1-(3-(2,5-dioxo-2,5-dihydro-1H-pyrrol-1-yl)propanoyl)azetidin-3-yl)oxy)propoxy)-2-(1-ethyl-3-methyl-1H-pyrazole-5-carboxamido)-1H-benzo[d]imidazole-5-carboxamide]	0.0104

Same assay, conditions: Homo sapiens, THP1-Dual, 24 h, free compounds, 24 h, Lucia reporter signal; read-out: EC50

SMILES	pEC50
CCn1nc(C)cc1C(=O)Nc1nc2cc(C(N)=O)cc(OC)c2n1C/C=C/Cn1c(NC(=O)c2cc(C)nn2CC)nc2cc(C(N)=O)cc(OCCCN(C)C(=O)CCN3C(=O)C=CC3=O)c21 [Compound 12, (E)-1-(4-(5-carbamoyl-2-(1-ethyl-3-methyl-1H-pyrazole-5-carboxamido)-7-methoxy-1H-benzo[d]imidazol-1-yl)but-2-en-1-yl)-7-(3-(3-(2,5-dioxo-2,5-dihydro-1H-pyrrol-1-yl)-N-methylpropanamido)propoxy)-2-(1-ethyl-3-methyl-1H-pyrazole-5-carboxamido)-1H-benzo[d]imidazole-5-carboxamide]	7.43

Same assay, conditions: Homo sapiens, THP1-Dual; free compounds, 24 h, Lucia reporter signal; read-out: EC50

SMILES	pEC50
CCn1nc(C)cc1C(=O)Nc1nc2cc(C(N)=O)cc(O)c2n1C/C=C/Cn1c(NC(=O)c2cc(C)nn2CC)nc2cc(C(N)=O)cc(OCCCNC)c21 [Compound 15b]	8.24
CCn1nc(C)cc1C(=O)Nc1nc2cc(C(N)=O)cc(OC)c2n1C/C=C/Cn1c(NC(=O)c2cc(C)nn2CC)nc2cc(C(N)=O)cc(OCCCN(C)C(=O)[C@H](CC(=O)O)NC(=O)CCN3C(=O)C=CC3=O)c21 [Compound 17, (S,E)-4-((3-((5-carbamoyl-1-(4-(5-carbamoyl-2-(1-ethyl-3-methyl-1H-pyrazole-5-carboxamido)-7-methoxy-1H-benzo[d]imidazol-1-yl)but-2-en-1-yl)-2-(1-ethyl-3-methyl1H-pyrazole-5-carboxamido)-1H-benzo[d]imidazol-7-yl)oxy)propyl)(methyl)amino)-3-(3-(2,5-dioxo-2,5-dihydro-1H-pyrrol-1-yl)propanamido)-4-oxobutanoic acid]	7.18
CCn1nc(C)cc1C(=O)Nc1nc2cc(C(N)=O)cc(OC)c2n1C/C=C/Cn1c(NC(=O)c2cc(C)nn2CC)nc2cc(C(N)=O)cc(OCCCN(C)C(=O)[C@H](CO)NC(=O)CCN3C(=O)C=CC3=O)c21 [Compound 24, (S,E)-1-(4-(5-carbamoyl-2-(1-ethyl-3-methyl-1H-pyrazole-5-carboxamido)-7-methoxy-1H-benzo[d]imidazol-1-yl)but-2-en-1-yl)-7-(3-(2-(3-(2,5-dioxo-2,5-dihydro-1H-pyrrol-1-yl)propanamido)-3-hydroxy-N-methylpropanamido)propoxy)-2-(1-ethyl-3-methyl-1H-pyrazole-5-carboxamido)-1H-benzo[d]imidazole-5-carboxamide]	7.08
CCn1nc(C)cc1C(=O)Nc1nc2cc(S(N)(=O)=O)ccc2n1C/C=C/Cn1c(NC(=O)c2cc(C)nn2CC)nc2cc(C(N)=O)cc(OCCCN(C)C(=O)OC(C)(C)C)c21 [Compound 25f]	7.92
CCn1nc(C)cc1C(=O)Nc1nc2cc(S(N)(=O)=O)ccc2n1C/C=C/Cn1c(NC(=O)c2cc(C)nn2CC)nc2cc(C(N)=O)cc(OCCCNC)c21 [Compound 25g]	5.80
CCn1nc(C)cc1C(=O)Nc1nc2cc(C(N)=O)cc(OC)c2n1C/C=C/Cn1c(NC(=O)c2cc(C)nn2CC)nc2cc(C(N)=O)cc(OCCC3CNC3)c21 [Compound 26f]	7.16
CCn1nc(C)cc1C(=O)Nc1nc2cc(C(N)=O)cc(OC)c2n1C/C=C/Cn1c(NC(=O)c2cc(C)nn2CC)nc2cc(C(N)=O)cc(OCCCOC3CNC3)c21 [Compound 27f]	7.42
CCn1nc(C)cc1C(=O)Nc1nc2cc(S(N)(=O)=O)ccc2n1C/C=C/Cn1c(NC(=O)c2cc(C)nn2CC)nc2cc(C(N)=O)cc(OCCCN(C)C(=O)CCN3C(=O)CC(SC[C@H](N)C(=O)O)C3=O)c21 (stereo partly drawn) [Compound 28, S-(1-(3-((3-((5-carbamoyl-2-(1-ethyl-3-methyl-1H-pyrazole-5-carboxamido)-1-((E)-4-(2-(1-ethyl-3-methyl-1H-pyrazole-5-carboxamido)-5-sulfamoyl-1H-benzo[d]imidazol-1-yl)but-2-en-1-yl)-1H-benzo[d]imidazol-7-yl)oxy)propyl)(methyl)amino)-3-oxopropyl)-2,5-dioxopyrrolidin-3-yl)-L-cysteine]	6.02
CCn1nc(C)cc1C(=O)Nc1nc2cc(C(N)=O)cc(OC)c2n1C/C=C/Cn1c(NC(=O)c2cc(C)nn2CC)nc2cc(C(N)=O)cc(OCCC3CN(C(=O)CCN4C(=O)CC(SC[C@H](N)C(=O)O)C4=O)C3)c21 (stereo partly drawn) [Compound 29, S-(1-(3-(3-(2-((5-carbamoyl-1-((E)-4-(5-carbamoyl-2-(1-ethyl-3-methyl-1H-pyrazole-5-carboxamido)-7-methoxy-1H-benzo[d]imidazol-1-yl)but-2-en-1-yl)-2-(1-ethyl-3-methyl-1H-pyrazole-5-carboxamido)-1H-benzo[d]imidazol-7-yl)oxy)ethyl)azetidin-1-yl)-3-oxopropyl)-2,5-dioxopyrrolidin-3-yl)-L-cysteine]	7.28
CCn1nc(C)cc1C(=O)Nc1nc2cc(C(N)=O)cc(OC)c2n1C/C=C/Cn1c(NC(=O)c2cc(C)nn2CC)nc2cc(C(N)=O)cc(OCCCOC3CN(C(=O)CCN4C(=O)CC(SC[C@H](N)C(=O)O)C4=O)C3)c21 (stereo partly drawn) [Compound 30, S-(1-(3-(3-(3-((5-carbamoyl-1-((E)-4-(s-carbamoyl-2-(1-ethyl-3-methyl-1H-pyrazole-5-carboxamido)-7-methoxy-1H-benzo[d]imidazol-1-yl)but-2-en-1-yl)-2-(1-ethyl-3-methyl-1H-pyrazole-5-carboxamido)-1H-benzo[d]imidazol-7-yl)oxy)propoxy)azetidin-1-yl)-3-oxopropyl)-2,5-dioxopyrrolidin-3-yl)-L-cysteine]	7.06
CCn1ncc(C)c1C(=O)Nc1nc2cc(C(N)=O)cc(O)c2n1C/C=C/Cn1c(NC(=O)c2c(C)cnn2CC)nc2cc(C(N)=O)cc(OC)c21 [Compound 31]	6.76
CCn1nc(C(=O)Nc2nc3cc(C(N)=O)cc(O)c3n2C/C=C/Cn2c(NC(=O)c3cc(C)n(CC)n3)nc3cc(C(N)=O)cc(OC)c32)cc1C [Compound 32]	7.35
COc1cc(C(N)=O)cc2nc(NC(=O)c3ccco3)n(C/C=C/Cn3c(NC(=O)c4ccco4)nc4cc(C(N)=O)cc(O)c43)c12 [Compound 33]	< 5.00
COc1cc(C(N)=O)cc2nc(NC(=O)c3cccs3)n(C/C=C/Cn3c(NC(=O)c4cccs4)nc4cc(C(N)=O)cc(O)c43)c12 [Compound 35]	< 5.00
CCn1nccc1C(=O)Nc1nc2cc(C(N)=O)cc(O)c2n1C/C=C/Cn1c(NC(=O)c2ccnn2CC)nc2cc(C(N)=O)cc(OC)c21 [Compound 37]	< 5.00

Same assay, conditions: conjugated to a targeted mAb, 48 h

SMILES	potency of ADC relative to other ADC
CCn1nc(C)cc1C(=O)Nc1nc2cc(C(N)=O)cc(OC)c2n1C/C=C/Cn1c(NC(=O)c2cc(C)nn2CC)nc2cc(C(N)=O)cc(OCCCN(C)C(=O)OCc3ccc(O[C@@H]4O[C@H](C(=O)O)[C@@H](O)[C@H](O)[C@H]4O)cc3NC(=O)CCNC(=O)CCN3C(=O)C=CC3=O)c21 [Compound 13]	more potent

Same assay, conditions: free compounds, 24 h, Lucia reporter signal; read-out: EC50

SMILES	pEC50
CCn1nc(C)cc1C(=O)Nc1nc2cc(C(N)=O)cc(OC)c2n1C/C=C/Cn1c(NC(=O)c2cc(C)nn2CC)nc2cc(C(N)=O)cc(OCCC3CN(C(=O)OC(C)(C)C)C3)c21 [Compound 26e]	8.30
CCn1nc(C)cc1C(=O)Nc1nc2cc(C(N)=O)cc(OC)c2n1C/C=C/Cn1c(NC(=O)c2cc(C)nn2CC)nc2cc(C(N)=O)cc(OCCCOC3CN(C(=O)OC(C)(C)C)C3)c21 [Compound 27e]	8.89

Same assay, conditions: free drug

SMILES	potency relative to other free compound
CCn1nc(C)cc1C(=O)Nc1nc2cc(C(N)=O)cc(O)c2n1C/C=C/Cn1c(NC(=O)c2cc(C)nn2CC)nc2cc(C(N)=O)cc(OCCCNC)c21 [Compound 15b]	more potent than 12a
